Entries after “also recorded” stand apart in the source; their conditions may differ.
Key:
CEM cells [1] = assay: Morphology by microscopy (mitotic arrest, apoptosis, necrosis); type: cell-based, human; design: key to Block of Mitosis: +Block of mitosis was observed; −no mitotic blocking; conditions: for mitotic arrest (blocking) effect, morphological appearance / Mitotic arrest, % / apoptosis by morphology: CEM cells; for mitotic arrest (blocking) effect, morphological appearance: 24 h, compound 8 at 0.025 μg/ml, compound 9 at 0.005 μg/ml; for morphological effect on leukemic cells / Activities of inducing Apoptosis / Activities of inducing Mitotic block / Activities of inducing Necrosis: CEM leukemic cells; for Activities of inducing Apoptosis / Activities of inducing Mitotic block / Activities of inducing Necrosis: % of affected cells; for Mitotic arrest, %: % of mitotic cells after 24 h incubation, optical microscopy; for apoptosis by morphology: treatment prolonged to 48 h
Method: Slides for examination of mitosis were prepared on a cytospin centrifuge (Shandon Southern Products Ltd, England ) at 700 g for 5 min. Slides were air dried, fixed in methanol and stained with Giemsa (Harleco, N.J.) at room temperature for 15 min. Cells in mitotic arrest were recognized by the disappearance of nuclear membrane and by the appearance of chromosomal scattering throughout the cytoplasm (reference 1). The % of mitotic cells were counted after 24 h incubation using optical microscopy. Apoptotic cells were identified using common criteria, i.e., shrinkage in cell size, chromatin condensation and fragmentation of the nucleus into discrete masses (reference 2).
Cell samples on slides were prepared by a Cytospin centrifuge (Shandon Southern Products Ltd, England) at 700 g for 5 min. The slides were air dried, fixed in methanol and stained with Giemsa (Harleco, N.J.) at room temperature for 15 min. Alterations of nuclei, membranes and morphological features were observed by light microscopy. Cells in mitotic phase were recognized by the appearance of their chromosomes dispersed in the cytoplasm, and by the disappearance of nuclear membrane. Apoptotic-cells were identified using previously defined criteria, i.e., shrinkage in cell size, chromatin condensation and fragmentation of the nucleus into discrete masses (references 2 & 3). Necrotic cells were differentiated from apoptotic cells by observing swollen cytoplasm and the disappearance of cell membrane prior to the destruction of the nucleus.

CEM cells [2] = assay: DNA fragmentation by electrophoresis (apoptosis); type: cell-based, human; conditions: for apoptosis, DNA fragmentation on gel electrophoresis: 48 hours, compound 8 0.025 μg/ml, compound 9 0.005 μg/ml, fluorine compound 5.0 μg/ml, chlorine compound 0.75 μg/ml; for Apoptosis: 0.025 μg/ml, DNA electrophoresis
Method: DNA fragmentation was determined by a method reported previously (reference 3). Briefly, cells were treated in 1 ml lysis buffer (0.01M Tris. HCL pH 8.0, 0.01M NaCl, 0.01M EDTA pH 8.0 and 5% sodium dodecyl sulfate) containing 1 μg/ml protease K for 1 h at 50° C. The resulting products were extracted with phenol and chloroform:isoamylalcohol (24:1, v/v), and precipitated with ethanol followed by centrifugation at 7800 g (Sorvall RC-5B Du Pont, Newtown, Conn.). The ethanol was removed and the dry pellets of nucleic acid were resuspended in 10 mM Tris-HCL/1 mM EDTA solution. When DNA content was determined spectrophotometrically all samples had A260/A280 ratio≧2. The DNA samples were then treated with RNase (Sigma, St. Louis, Mo.) at a final concentration of 0.1 μg/μl for 20 min at 37° C. before gel loading. Approximately 4 μg size DNA aliquots were loaded onto horizontal agarose gel (1.5%) prepared with 1% ethidium bromide. Electrophoresis was performed at 75 volts for 2 h and the DNA patterns were visualized with UV light.
[…] After incubation, cells were washed twice in PBS. Cell pellets were resuspended in drug-free medium and incubated for 48 hr at 37° C. Cell viability, morphology, mitotic spindles, cell cycle distribution and apoptosis were determined 24 hr and 48 hr post pulse exposure.
Soluble DNA from cells was extracted by the method reported previously (14). Briefly, after washing with PBS, cells were treated in 1 ml lysis buffer (0.01 M Tris.HCL pH 8.0, 0.01 M NaCl, 0.01M EDTA pH 8.0 and 5% sodium dodecyl sulfate) containing 1 μg/ml proteinase K for 1 hr at 50° C. The resulting products were extracted with phenol and chloroform:isoamylalcohol (24:1, v/v), and precipitated with ethanol followed by centrifugation at 7800 g (Sorvall RC-5B Du Pont, Newtown, Conn.). The ethanol was removed and the dry pellet of nucleic acid was resuspended in 10 mM Tris-HCL/1 mM EDTA solution. DNA content was determined spectrophotometrically by measuring absorption at 260 nm (A260). All samples, had A260/A280≧2. The DNA samples were then treated with RNase (Sigma, St. Louis, Mo.) at a final concentration of 0.1 μg/l for 20 min at 37° C. before gel loading. The DNA sample (4 μg) was analyzed in 1.5% horizontal agarose gel prepared with 1% ethidium bromide. Electrophoresis was performed at 75 volts for 2 hours and the DNA migration was visualized under UV light.

Purified tubulin = assay: Inhibition of microtubule assembly by spectrophotometry, cell free system; type: biochemical, calf; conditions: cell free tubulin; for inhibition of microtubule assembly: 1 μg/ml (3.3 μM for 3-BAABU)
Method: Purified tubulin was purchased from Sigma (St. Louis, Mo.). The effects of compounds 6, 7, 8, 9, paclitaxel and vinblastine on the microtubule assembly-disassembly process were determined using conditions recommended by the vendor. For assembly inhibition, 100 μl tubulin solution (500-600 μg protein/ml) was mixed gently with 400 μl reaction buffer containing 0.1 M MES (2-[N-morpholino]ethane sulfonic acid), 1 mM EGTA ([…]-N,N,N′,N′-tetraacetic acid), 0.5 mM MgCl2, 0.1 mM EDTA and 2.5 M gycerol at 37° C. Compounds 6, 7, 8, and 9 were next added to each sample at final concentrations of 10, 10, 1 and 1 μg/ml, respectively. After adding GTP to each sample to a final concentration of 1 mM, the microtubule assembly process was monitored by measuring the change of absorbance (OD) at 350 nm on a spectrophotometer (Ultrospec III, Pharmacia LKB, Uppsala, Sweden). A completed assembly process was observed within 40 min at room temperature. For disassembly inhibition, compounds 6, 7, 8, and 9 were added, at the above concentrations, to covets with repolymerized microtubules as described above, and incubated in melting ice. Changes of absorbance (OD) were monitored at 350 nm for 30 min until the OD values in the controls returned to the starting level, i.e., when the assembly-disassembly cycle was completed.
Purified tubulin from calf brain was purchased from Sigma (St. Louis, Mo.). The effects of 3-BAABU (3-bromoacetoamido, benzoylurea) on the microtubule assembly-disassembly process were determined using the conditions recommended by the vendor. For assembly inhibition, 100 μl tubulin solution (500-600 μg protein/ml) was mixed gently with 400 μl reaction buffer containing 0.1 M MES, 1 mM EGTA, 0.5 mM MgCl2, 0.1 mM EDTA and 2.5 M glycerol at 37° C. 3-BAABU, paclitaxel or vinblastine were then added to each sample cuvet at final concentrations of 3.3, 23 or 22 μM, respectively. After adding GTP to each sample to a final concentration of 1 mM, the microtubule assembly process was monitored by measuring the change of absorbance (OD) every 5 min at 350 nm on a spectrophotometer (Ultrospec III, Pharmacia LKB, Uppsala, Sweden). A completed assembly process was observed within 40 min at room temperature. For disassembly inhibition, 3-BAABU (3.3 μM), paclitaxel (23 μM) or vinblastine (22 μM) was added to a cuvet with repolymerized microtubules according to the method described above, and incubated in melting ice. Changes of absorbance (OD) were monitored at 350 nm for 30 min until the OD values in the controls returned to the starting level, i.e., completion of the assembly-disassembly cycle. Solvent solutions were used as control and had no effect in either the assembly or disassembly process.

Structure (SMILES)	mitotic arrest (blocking) effect, morphological appearance (CEM cells [1])	morphological effect on leukemic cells (CEM cells [1])	Activities of inducing Apoptosis (CEM cells [1])	Activities of inducing Mitotic block (CEM cells [1])	Activities of inducing Necrosis (CEM cells [1])	apoptosis, DNA fragmentation on gel electrophoresis (CEM cells [2])	effect on microtubule assembly (Purified tubulin; up to 10 μg/ml)	Mitotic arrest, % (CEM cells [1]) [%]	apoptosis by morphology (CEM cells [1])	Block of Mitosis (CEM cells [1]; CEM, Human T-cell Leukemia, 37° C. for 48 hr)	Apoptosis (CEM cells [2]; Continuous Exposure (24 hr; 48 hr in footnote))	Apoptosis (CEM cells [2]; Pulse Exposure (1 hr))	inhibition of microtubule assembly (Purified tubulin)	inhibition of microtubule assembly (Purified tubulin; listed as 3-BAABU)
NC(=O)NC(=O)c1cccc(NC(=O)CCl)c1 [Compound 7, 3-Chloroacetoamido, benzoylurea]	minor	also induced mitotic arrest but with less disorganization	++ (++: 25-50%)	+ (+10-25%)	− (−:<10%)	much less DNA fragmentation	very weak inhibitory effect; also recorded: no effect	–	–	–	–	–	–	–
NC(=O)NC(=O)c1cccc(NC(=O)CBr)c1 [Compound 8, 3-Bromoacetoamido, benzoylurea]	main features of mitotic arrest	induced mitotic arrest	++++ (++++: >75%)	++++ (++++: >75%)	− (−:<10%)	180-200 bp multiple-unit ladder pattern	–	>85	complete apoptosis	+	++++ (++++: >75% cells were affected)	++++ (++++: >75% cells were affected)	complete inhibition; also recorded: completely inhibited	Complete inhibition
NC(=O)NC(=O)c1cccc(NC(=O)CI)c1 [Compound 9, 3-Iodoacetoamido, benzoylurea]	main features of mitotic arrest	–	–	–	–	180-200 bp multiple-unit ladder pattern	–	>85	complete apoptosis	–	–	–	complete inhibition; also recorded: completely inhibited	–
